14 compounds from US20260242391A1 (priority 2023, published 2026) can be followed below.

One may read the EC50 as the concentration at which the effect is half-maximal. Read a low EC50 as an effect from little substance. In general, IC50 refers to the midpoint of a concentration-inhibition curve. The low end stands for greater potency, the high end for weaker potency.

One data set concerns HL-60. The data set can be described thus: HL-60 differentiation potency. Type of data set: cell-based. The settings on record: Homo sapiens.
Another data set can be described thus: in vitro. Particulars: human.

`C[C@H]1[C@@H](O[C@H]2CC[C@@H](C(=O)NC3(C(=O)O)CC3)CC2)O[C@@H]2O[C@@]3(C)CC[C@H]4[C@H](C)CC[C@@H]1[C@@]24OO3` [Compound 262, 1-((1R,4s)-4-(((3R,5aS,6R,8aS, 9R,10S,12R, 12aR)-3,6,9-trimethyldeca-hydro-12H-3,12-epoxy[1,2]dioxepino[4,3-i]isochromen-10-yl)oxy)cyclohexane-1-carboxamido) cyclopropane-1-carboxylic acid] returned an EC50 in the data set on HL-60 of 11400 nM. The same compound displayed an IC50 in the data set “in vitro” greater than 20000 nM.

Regarding `C[C@H]1[C@@H](OC[C@H]2CC[C@@H](C(=O)N3CC[C@@H](C(=O)O)C3)CC2)O[C@@H]2O[C@@]3(C)CC[C@H]4[C@H](C)CC[C@@H]1[C@@]24OO3` [Compound 263, (R)-1-((1R,4S)-4-((((3R,5aS,6R,8aS, 9R,10S,12R, 12aR)-3,6,9-trimethyldeca-hydro-12H-3,12-epoxy[1,2]dioxepino[4,3-i]isochromen-10-yl)oxy)methyl)cyclohexane-1-carbonyl) pyrrolidine-3-carboxylic acid], the EC50 in the data set on HL-60 was determined as 374 nM. The same compound registered an IC50 in “in vitro” of 16800 nM.

In the case of `C[C@H]1[C@@H](Oc2ccc(Cn3cc(C(=O)O)nn3)c(Br)c2)O[C@@H]2O[C@@]3(C)CC[C@H]4[C@H](C)CC[C@@H]1[C@@]24OO3` [Compound 264, 1-(2-bromo-4-(((3R,5aS,6R,8aS,9R,10S,12R, 12aR)-3,6,9-trimethyldeca-hydro-12H-3,12-epoxy[1,2]dioxepino[4,3-i]isochromen-10-yl)oxy)benzyl)-1H-1,2,3-triazole-4-carboxylic acid], the midpoint of the response in the data set on HL-60, the EC50, lay at 159 nM. For the same compound, in “in vitro”, the IC50 is 1430 nM.

Consider `C[C@H]1[C@@H](Oc2ccc(C(=O)NC3(C(=O)O)COC3)cc2Cl)O[C@@H]2O[C@@]3(C)CC[C@H]4[C@H](C)CC[C@@H]1[C@@]24OO3` [Compound 265, 3-(3-chloro-4-(((3R,5aS,6R,8aS, 9R,10S,12R, 12aR)-3,6,9-trimethyldeca-hydro-12H-3,12-epoxy[1,2]dioxepino[4,3-i]isochromen-10-yl)oxy)benzamido) oxetane-3-carboxylic acid], for which the EC50 in the data set with HL-60 turned out to be 6450 nM. Besides, the half-maximal inhibitory concentration (IC50) in “in vitro” came out at 17200 nM.

In the data set on HL-60, `CC(C)C(C(=O)O)c1ccc(O[C@H]2O[C@@H]3O[C@@]4(C)CC[C@H]5[C@H](C)CC[C@@H]([C@H]2C)[C@@]35OO4)c(F)c1` (stereo partly drawn) [Compound 266, 2-(3-fluoro-4-(((3R,5aS,6R,8aS, 9R,10S,12R, 12aR)-3,6,9-trimethyldeca-hydro-12H-3,12-epoxy[1,2]dioxepino[4,3-i]isochromen-10-yl)oxy)phenyl)-3-methylbutanoic acid] came in with an EC50 of 10.3 nM. In the data set “in vitro”, the IC50 is 60 nM.

Regarding `C[C@H]1[C@@H](Oc2ccc(OC3(C(=O)O)CC3)cc2)O[C@@H]2O[C@@]3(C)CC[C@H]4[C@H](C)CC[C@@H]1[C@@]24OO3` [Compound 268, 1-(4-(((3R,5aS,6R,8aS, 9R,10S,12R, 12aR)-3,6,9-trimethyldeca-hydro-12H-3,12-epoxy[1,2]dioxepino[4,3-i]isochromen-10-yl)oxy)phenoxy) cyclopropane-1-carboxylic acid], the midpoint of the response in the data set on HL-60, the EC50, lay at 48.9 nM. This compound displayed a concentration for half-maximal inhibition (IC50) in “in vitro” of 4280 nM.

`C[C@H]1[C@@H](OC/C=C/[C@@H]2CCC[C@H](C(=O)O)C2)O[C@@H]2O[C@@]3(C)CC[C@H]4[C@H](C)CC[C@@H]1[C@@]24OO3` [Compound 269, (1S,3R)-3-((E)-3-(((3R,5aS,6R,8aS, 9R,10S,12R, 12aR)-3,6,9-trimethyldeca-hydro-12H-3,12-epoxy[1,2]dioxepino[4,3-i]isochromen-10-yl)oxy)prop-1-en-1-yl) cyclohexane-1-carboxylic acid] gave an EC50 in the data set on HL-60 of 143 nM. The same compound showed an IC50 in the data set “in vitro” of 7330 nM.

With `C[C@H]1[C@@H](Oc2ccc(C(C)(C)C(=O)O)cc2F)O[C@@H]2O[C@@]3(C)CC[C@H]4[C@H](C)CC[C@@H]1[C@@]24OO3` [Compound 270, 2-(3-fluoro-4-(((3R,5aS,6R,8aS, 9R,10S,12R, 12aR)-3,6,9-trimethyldeca-hydro-12H-3,12-epoxy[1,2]dioxepino[4,3-i]isochromen-10-yl)oxy)phenyl)-2-methyl-propanoic acid], the EC50 in the data set on HL-60 came out at 28.6 nM. The compound further registered an IC50 in “in vitro” of 700 nM.

For the compound `C[C@H]1[C@@H](OC/C=C/[C@]2(F)CC[C@H](C(=O)O)CC2)O[C@@H]2O[C@@]3(C)CC[C@H]4[C@H](C)CC[C@@H]1[C@@]24OO3` [Compound 271, (1S,4r)-4-fluoro-4-((E)-3-(((3R,5aS,6R,8aS, 9R,10S,12R, 12aR)-3,6,9-trimethyldeca-hydro-12H-3,12-epoxy[1,2]dioxepino[4,3-i]isochromen-10-yl)oxy)prop-1-en-1-yl) cyclohexane-1-carboxylic acid], in the data set with HL-60, the EC50 turned out to be 92.4 nM. The compound also displayed an IC50 in “in vitro” of 19000 nM.

Compound `C[C@H]1[C@@H](Oc2ccc(C(=O)N(C)[C@H]3CC[C@@H](C(=O)O)C3)cc2)O[C@@H]2O[C@@]3(C)CC[C@H]4[C@H](C)CC[C@@H]1[C@@]24OO3` [Compound 272, (1R,3S)-3-(N-methyl-4-(((3R,5aS,6R,8aS, 9R,10S,12R, 12aR)-3,6,9-trimethyldeca-hydro-12H-3,12-epoxy[1,2]dioxepino[4,3-i]isochromen-10-yl)oxy)benzamido) cyclopentane-1-carboxylic acid] gave an EC50 in the data set with HL-60 of 105 nM. Moreover, in the data set “in vitro”, the IC50 turned out to be 9270 nM.

As for `C[C@H]1[C@@H](OCc2ccc(C(=O)NC34CC(C(=O)O)(C3)C4)cc2)O[C@@H]2O[C@@]3(C)CC[C@H]4[C@H](C)CC[C@@H]1[C@@]24OO3` [Compound 273, 3-(4-((((3R,5aS,6R,8aS, 9R,10S,12R, 12aR)-3,6,9-trimethyldeca-hydro-12H-3,12-epoxy[1,2]dioxepino[4,3-i]isochromen-10-yl)oxy)methyl)benzamido) bicyclo[1.1.1] pentane-1-carboxylic acid], a half-maximal effect in the data set with HL-60 (EC50) was put at 2890 nM. This compound displayed an IC50 in the data set “in vitro” of 19400 nM.

Compound `C[C@H]1[C@@H](OCc2ccc(C(=O)N[C@H]3CC[C@@H](C(=O)O)C3)cc2)O[C@@H]2O[C@@]3(C)CC[C@H]4[C@H](C)CC[C@@H]1[C@@]24OO3` [Compound 275, (1R,3S)-3-(4-((((3R,5aS,6R,8aS, 9R,10S,12R, 12aR)-3,6,9-trimethyldeca-hydro-12H-3,12-epoxy[1,2]dioxepino[4,3-i]isochromen-10-yl)oxy)methyl)benzamido) cyclopentane-1-carboxylic acid] registered an EC50 in the data set on HL-60 of 240 nM. For the same compound, 6800 nM corresponded to half-maximal inhibition in “in vitro” (IC50).

The compound `C[C@H]1[C@@H](OCc2ccc(C(=O)N3C[C@@H](F)C[C@H]3C(=O)O)cc2)O[C@@H]2O[C@@]3(C)CC[C@H]4[C@H](C)CC[C@@H]1[C@@]24OO3` [Compound 276, (2S,4S)-4-fluoro-1-(4-((((3R,5aS,6R,8aS, 9R,10S,12R, 12aR)-3,6,9-trimethyldeca-hydro-12H-3,12-epoxy[1,2]dioxepino[4,3-i]isochromen-10-yl)oxy)methyl)benzoyl) pyrrolidine-2-carboxylic acid] returned an EC50 in the data set with HL-60 greater than 20000 nM. In the data set “in vitro”, this compound registered an IC50 greater than 20000 nM.

With `C[C@H]1[C@@H](OCc2ccc(C(=O)N3CCC(C(=O)O)CC3)cc2)O[C@@H]2O[C@@]3(C)CC[C@H]4[C@H](C)CC[C@@H]1[C@@]24OO3` [Compound 277, 1-(4-((((3R,5aS,6R,8aS, 9R,10S,12R, 12aR)-3,6,9-trimethyldeca-hydro-12H-3,12-epoxy[1,2]dioxepino[4,3-i]isochromen-10-yl)oxy)methyl)benzoyl) piperidine-4-carboxylic acid], the EC50 in the data set with HL-60 worked out at 1780 nM. For the same compound, the IC50 in the data set “in vitro” was greater than 20000 nM.
